Measurements reported in US8952024B2, “Herbicidal pyrimidone derivatives” (E I du Pont de Nemours and Company, priority 2009, dated 2015).

Experiments:
Test in all cases: Test B pre-/postemergence plant response
Type in all cases: in vivo
[1] = system: Italian ryegrass (Lolium multiflorum)
How it was run: (§1)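 Seeds were sown in loam soil/sand blend and treated preemergence with compound in non-phytotoxic solvent mixture containing surfactant; postemergence sprays, same formulation, went onto plants 2 to 18 cm (1- to 4-leaf stage) in peat-based planting medium. Greenhouse 13 to 15 days, then visual rating versus untreated controls, 0 (no effect) to 100 (complete control).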

[2] = system: Surinam grass (Brachiaria decumbens)
How it was run: as §1

[3] = system: bermudagrass (Cynodon dactylon)
How it was run: as §1

[4] = system: blackgrass (Alopecurus myosuroides)
How it was run: as §1

[5] = system: cocklebur (Xanthium strumarium)
How it was run: as §1

[6] = system: downy bromegrass (Bromus tectorum)
How it was run: as §1

kochia (Kochia scoparia) = system: kochia (Kochia scoparia)
How it was run: as §1

[7] = system: large crabgrass (Digitaria sanguinalis)
How it was run: as §1

[8] = system: morningglory (Ipomoea coccinea)
How it was run: as §1

[9] = system: ragweed (common ragweed, Ambrosia elatior)
How it was run: as §1

[10] = system: wheat (Triticum aestivum)
How it was run: as §1

wild oat (Avena fatua) = system: wild oat (Avena fatua)
How it was run: as §1

[11] = system: woolly cupgrass (Eriochloa villosa)
How it was run: as §1

[12] = 31 g ai/ha, postemergence, scale 0 to 100, 0 is no effect, 100 is complete control
[13] = Postemergence, 62 g ai/ha, scale 0 (no effect) to 100 (complete control), 13 to 15 days
[14] = Postemergence, 125 g ai/ha, visual rating after 13 to 15 days, scale 0 (no effect) to 100 (complete control)
[15] = Postemergence, 250 g ai/ha, scale 0 to 100 (0 no effect, 100 complete control)
[16] = Preemergence, 31 g ai/ha, scale 0 to 100 (0 no effect, 100 complete control)
[17] = Preemergence, 62 g ai/ha, scale 0 to 100 (0 no effect, 100 complete control)
[18] = Preemergence, 125 g ai/ha, scale 0 to 100, 0 no effect, 100 complete control
[19] = 250 g ai/ha, Preemergence, 0 to 100 scale
[20] = Postemergence, 31 g ai/ha, scale 0 to 100 (0 no effect, 100 complete control)
[21] = Postemergence, 250 g ai/ha, scale 0 to 100
[22] = Preemergence, 0 is no effect, 100 is complete control, rated after 13 to 15 days, application rate of this section not shown

Cn1c(-c2ccccc2)ncc(C(=O)C2=C(O)CCCC2=O)c1=O [Compound 55]
Plant response rating, Ryegrass, Italian [1, 12]: 0
Plant response rating, Ryegrass, Italian [1, 13]: 0
Plant response rating, Ryegrass, Italian [1, 14]: 0
Plant response rating, Ryegrass, Italian [1, 15]: 0
Plant response rating, Ryegrass, Italian [1, 16]: 0
Plant response rating, Ryegrass, Italian [1, 17]: 0
Plant response rating, Ryegrass, Italian [1, 18]: 0
Plant response rating, Surinam Grass [2, 12]: 10
Plant response rating, Surinam Grass [2, 13]: 15
Plant response rating, Surinam Grass [2, 14]: 45
Plant response rating, Surinam Grass [2, 15]: 60
Plant response rating, Surinam Grass [2, 16]: 0
Plant response rating, Surinam Grass [2, 17]: 0
Plant response rating, Surinam Grass [2, 18]: 0
Plant response rating, Bermudagrass [3, 12]: 80
Plant response rating, Bermudagrass [3, 19]: 100
Plant response rating, Bermudagrass [3, 13]: 80
Plant response rating, Bermudagrass [3, 14]: 85
Plant response rating, Bermudagrass [3, 15]: 90
Plant response rating, Bermudagrass [3, 16]: 95
Plant response rating, Bermudagrass [3, 17]: 98
Plant response rating, Bermudagrass [3, 18]: 100
Plant response rating, Blackgrass [4, 12]: 0
Plant response rating, Blackgrass [4, 19]: 30
Plant response rating, Blackgrass [4, 13]: 0
Plant response rating, Blackgrass [4, 14]: 5
Plant response rating, Blackgrass [4, 15]: 10
Plant response rating, Blackgrass [4, 16]: 0
Plant response rating, Blackgrass [4, 17]: 0
Plant response rating, Blackgrass [4, 18]: 0
Plant response rating, Cocklebur [5, 12]: 45
Plant response rating, Cocklebur [5, 19]: 15
Plant response rating, Cocklebur [5, 13]: 60
Plant response rating, Cocklebur [5, 14]: 65
Plant response rating, Cocklebur [5, 15]: 75
Plant response rating, Cocklebur [5, 16]: 0
Plant response rating, Cocklebur [5, 17]: 10
Plant response rating, Cocklebur [5, 18]: 10
Plant response rating, Bromegrass, Downy [6, 12]: 0
Plant response rating, Bromegrass, Downy [6, 19]: 0
Plant response rating, Bromegrass, Downy [6, 13]: 0
Plant response rating, Bromegrass, Downy [6, 14]: 0
Plant response rating, Bromegrass, Downy [6, 15]: 0
Plant response rating, Bromegrass, Downy [6, 16]: 0
Plant response rating, Bromegrass, Downy [6, 17]: 0
Plant response rating, Bromegrass, Downy [6, 18]: 0
Plant response rating, Kochia (kochia (Kochia scoparia); [12]): 20
Plant response rating, Kochia (kochia (Kochia scoparia); [13]): 65
Plant response rating, Kochia (kochia (Kochia scoparia); [14]): 75
Plant response rating, Kochia (kochia (Kochia scoparia); [15]): 85
Plant response rating, Crabgrass, Large [7, 12]: 60
Plant response rating, Crabgrass, Large [7, 19]: 98
Plant response rating, Crabgrass, Large [7, 13]: 75
Plant response rating, Crabgrass, Large [7, 14]: 80
Plant response rating, Crabgrass, Large [7, 15]: 85
Plant response rating, Crabgrass, Large [7, 16]: 10
Plant response rating, Crabgrass, Large [7, 17]: 60
Plant response rating, Crabgrass, Large [7, 18]: 95
Plant response rating, Morningglory [8, 12]: 55
Plant response rating, Morningglory [8, 13]: 60
Plant response rating, Morningglory [8, 14]: 75
Plant response rating, Morningglory [8, 15]: 85
Plant response rating, Morningglory [8, 16]: 0
Plant response rating, Morningglory [8, 17]: 0
Plant response rating, Morningglory [8, 18]: 45
Plant response rating, Ragweed [9, 12]: 70
Plant response rating, Ragweed [9, 13]: 80
Plant response rating, Ragweed [9, 14]: 95
Plant response rating, Ragweed [9, 15]: 98
Plant response rating, Ragweed [9, 16]: 55
Plant response rating, Ragweed [9, 17]: 65
Plant response rating, Ragweed [9, 18]: 85
Plant response rating, Wheat [10, 12]: 0
Plant response rating, Wheat [10, 13]: 0
Plant response rating, Wheat [10, 14]: 5
Plant response rating, Wheat [10, 15]: 10
Plant response rating, Wheat [10, 16]: 0
Plant response rating, Wheat [10, 17]: 0
Plant response rating, Wheat [10, 18]: 0
Plant response rating, Oat, Wild (wild oat (Avena fatua); [12]): 0
Plant response rating, Oat, Wild (wild oat (Avena fatua); [13]): 0
Plant response rating, Oat, Wild (wild oat (Avena fatua); [14]): 0
Plant response rating, Oat, Wild (wild oat (Avena fatua); [15]): 5
Plant response rating, Oat, Wild (wild oat (Avena fatua); [16]): 0
Plant response rating, Oat, Wild (wild oat (Avena fatua); [17]): 0
Plant response rating, Oat, Wild (wild oat (Avena fatua); [18]): 0
Plant response rating, Cupgrass, Woolly [11, 12]: 10
Plant response rating, Cupgrass, Woolly [11, 19]: 55
Plant response rating, Cupgrass, Woolly [11, 13]: 10
Plant response rating, Cupgrass, Woolly [11, 14]: 15
Plant response rating, Cupgrass, Woolly [11, 15]: 20
Plant response rating, Cupgrass, Woolly [11, 16]: 0
Plant response rating, Cupgrass, Woolly [11, 17]: 0
Plant response rating, Cupgrass, Woolly [11, 18]: 0

5-[(2-hydroxy-6-oxo-1-cyclohexen-1-yl)carbonyl]-2,3-diphenyl-4(3H)-pyrimidinone [Compound 2]
Plant response rating, Ryegrass, Italian [1, 20]: 0
Plant response rating, Ryegrass, Italian [1, 13]: 0
Plant response rating, Ryegrass, Italian [1, 14]: 0
Ryegrass, Italian plant response rating [1, 21]: 0
Ryegrass, Italian plant response rating (0 to 100 scale) [1, 22]: 0
Plant response rating, Surinam Grass [2, 20]: 0
Plant response rating, Surinam Grass [2, 13]: 0
Plant response rating, Surinam Grass [2, 14]: 10
Surinam Grass plant response rating [2, 21]: 20
Surinam Grass plant response rating (0 to 100 scale) [2, 22]: 0
Plant response rating, Bermudagrass [3, 20]: 40
Plant response rating, Bermudagrass [3, 13]: 50
Plant response rating, Bermudagrass ([3]; Postemergence, 125 g ai/ha, scale 0 to 100 (0 no effect, 100 complete control), 13 to 15 days): 60
Bermudagrass plant response rating [3, 21]: 65
Plant response rating, Blackgrass [4, 20]: 0
Plant response rating, Blackgrass [4, 13]: 0
Plant response rating, Blackgrass [4, 14]: 5
Blackgrass plant response rating [4, 21]: 5
Plant response rating, Cocklebur [5, 20]: 65
Plant response rating, Cocklebur [5, 13]: 65
Plant response rating, Cocklebur [5, 14]: 70
Cocklebur plant response rating [5, 21]: 85
Plant response rating, Bromegrass, Downy [6, 20]: 0
Plant response rating, Bromegrass, Downy [6, 13]: 0
Plant response rating, Bromegrass, Downy [6, 14]: 0
Bromegrass, Downy plant response rating [6, 21]: 10
Plant response rating, Kochia (kochia (Kochia scoparia); [20]): 15
Plant response rating, Kochia (kochia (Kochia scoparia); [13]): 20
Plant response rating, Kochia (kochia (Kochia scoparia); [14]): 25
Kochia plant response rating (kochia (Kochia scoparia); [21]): 45
Plant response rating, Crabgrass, Large [7, 20]: 40
Plant response rating, Crabgrass, Large [7, 13]: 50
Plant response rating, Crabgrass, Large [7, 14]: 55
Crabgrass, Large plant response rating [7, 21]: 65
Plant response rating, Morningglory [8, 20]: 0
Plant response rating, Morningglory [8, 13]: 20
Plant response rating, Morningglory [8, 14]: 45
Morningglory plant response rating [8, 21]: 65
Plant response rating, Ragweed [9, 20]: 60
Plant response rating, Ragweed [9, 13]: 70
Plant response rating, Ragweed [9, 14]: 70
Ragweed plant response rating [9, 21]: 75
Ragweed plant response rating (0 to 100 scale) [9, 22]: 25
Plant response rating, Wheat [10, 20]: 0
Plant response rating, Wheat [10, 13]: 0
Plant response rating, Wheat [10, 14]: 0
Wheat plant response rating [10, 21]: 5
Wheat plant response rating (0 to 100 scale) [10, 22]: 0
Plant response rating, Oat, Wild (wild oat (Avena fatua); [20]): 5
Plant response rating, Oat, Wild (wild oat (Avena fatua); [13]): 5
Plant response rating, Oat, Wild (wild oat (Avena fatua); [14]): 10
Oat, Wild plant response rating (wild oat (Avena fatua); [21]): 10
Plant response rating, Cupgrass, Woolly [11, 20]: 0
Plant response rating, Cupgrass, Woolly [11, 13]: 0
Plant response rating, Cupgrass, Woolly [11, 14]: 0
Cupgrass, Woolly plant response rating [11, 21]: 20
